Assay results from PubChem BioAssay AID220 (DTP/NCI, 2004).
Several values for one entry are separate records, joined by “and”; a condition that tells them apart may be missing. Equal entries are not always repeated. Records with an inconclusive call do not appear.

System: CD8F1 mice, subcutaneous mammary adenocarcinoma, T/C%
Assay: NCI In Vivo Anticancer Drug Screen. Data for tumor model Mammary Adenocarcinoma CD8F1 (subcutaneous) in CD8F1
Settings: higher = larger tumour
Method: The antitumor activity of compounds was measured in mice bearing transplantable tumors. Survival or tumor size were measured and the results are expressed as the measurement made in the treated group (T) divided by the measurement made in the vehicle treated control group (C). The tumor model used in this assay is Mammary Adenocarcinoma CD8F1 (subcutaneous) in CD8F1

N[C@@H](Cc1ccc(N(CCCl)CCCl)cc1)C(=O)O
T/C (endpoint: mean tumor weight, dose: 1.25 mg/kg/injection, schedule: Q01DX009 (ip), vehicle: saline): 10 % of control
T/C (endpoint: mean tumor weight, dose: 2.5 mg/kg/injection, schedule: Q01DX009 (ip), vehicle: saline): 3 % of control
T/C (endpoint: mean tumor weight, dose: 4.0 mg/kg/injection, schedule: Q07DX006 (ip), vehicle: saline): 12 % of control
T/C (endpoint: mean tumor weight, dose: 5.0 mg/kg/injection, schedule: Q07DX006 (ip), vehicle: saline): 3 % of control
T/C (endpoint: mean tumor weight, dose: 8.0 mg/kg/injection, schedule: Q07DX006 (ip), vehicle: saline): 1 % of control
T/C (endpoint: median tumor weight (est.), dose: 1.0 mg/kg/injection, schedule: Q07DX005 (ip), vehicle: Klucel (hydroxypropylcellulose) (HPC)): 91 % of control
T/C (endpoint: median tumor weight (est.), dose: 1.0 mg/kg/injection, schedule: Q07DX005 (ip), vehicle: suspension in saline): 60 % of control
T/C (endpoint: median tumor weight (est.), dose: 2.0 mg/kg/injection, schedule: Q01DX001 (ip), vehicle: suspension in saline): 93 % of control and 114 % of control
T/C (endpoint: median tumor weight (est.), dose: 2.0 mg/kg/injection, schedule: Q07DX005 (ip), vehicle: Klucel (hydroxypropylcellulose) (HPC)): 42 % of control
T/C (endpoint: median tumor weight (est.), dose: 3.0 mg/kg/injection, schedule: Q07DX005 (ip), vehicle: suspension in saline): 6 % of control
T/C (endpoint: median tumor weight (est.), dose: 4.0 mg/kg/injection, schedule: Q01DX001 (ip), vehicle: suspension in saline): 62 % of control and 70 % of control
T/C (endpoint: median tumor weight (est.), dose: 4.0 mg/kg/injection, schedule: Q07DX005 (ip), vehicle: Klucel (hydroxypropylcellulose) (HPC)): 16 % of control
T/C (endpoint: median tumor weight (est.), dose: 4.0 mg/kg/injection, schedule: Q07DX005 (ip), vehicle: suspension in saline): 12 % of control
T/C (endpoint: median tumor weight (est.), dose: 5.0 mg/kg/injection, schedule: Q07DX005 (ip), vehicle: suspension in saline): 1 % of control
T/C (endpoint: median tumor weight (est.), dose: 5.3 mg/kg/injection, schedule: Q01DX001 (ip), vehicle: suspension in saline): 15 % of control
T/C (endpoint: median tumor weight (est.), dose: 8.0 mg/kg/injection, schedule: Q07DX005 (ip), vehicle: Klucel (hydroxypropylcellulose) (HPC)): 9 % of control
T/C (endpoint: median tumor weight (est.), dose: 8.0 mg/kg/injection, schedule: Q07DX005 (ip), vehicle: suspension in saline): 1 % of control
T/C (endpoint: median tumor weight (est.), dose: 12.0 mg/kg/injection, schedule: Q01DX001 (ip), vehicle: suspension in saline): 7 % of control
T/C (endpoint: median tumor weight (est.), dose: 16.0 mg/kg/injection, schedule: Q01DX001 (ip), vehicle: suspension in saline): 8 % of control and 18 % of control
T/C (endpoint: median tumor weight (est.), dose: 18.0 mg/kg/injection, schedule: Q01DX001 (ip), vehicle: suspension in saline): 7 % of control
T/C (endpoint: median tumor weight change, dose: 3.0 mg/kg/injection, schedule: Q01DX001 (ip), vehicle: saline): 72 % of control
T/C (endpoint: median tumor weight change, dose: 5.0 mg/kg/injection, schedule: Q01DX001 (ip), vehicle: saline): 4 % of control
T/C (endpoint: median tumor weight change, dose: 10.0 mg/kg/injection, schedule: Q01DX001 (ip), vehicle: saline): -6 % of control
T/C (endpoint: median tumor weight change, dose: 20.0 mg/kg/injection, schedule: Q01DX001 (ip), vehicle: saline): -82 % of control

[CH3][Sn]([CH3])([Cl])[S]CCN
T/C (endpoint: median tumor weight change, dose: 12.5 mg/kg/injection, schedule: Q01DX001 (ip), vehicle: saline): 108 % of control

CC1=CC(=Nc2ccc(N(CCCl)CCCl)cc2)C=C(C)C1=O
T/C (endpoint: median tumor weight (est.), dose: 6.25 mg/kg/injection, schedule: Q07DX005 (ip), vehicle: Klucel (hydroxypropylcellulose) (HPC)): 61 % of control and 69 % of control
T/C (endpoint: median tumor weight (est.), dose: 50.0 mg/kg/injection, schedule: Q07DX005 (ip), vehicle: Klucel (hydroxypropylcellulose) (HPC)): 32 % of control and 44 % of control
T/C (endpoint: median tumor weight (est.), dose: 100.0 mg/kg/injection, schedule: Q07DX005 (ip), vehicle: Klucel (hydroxypropylcellulose) (HPC)): 45 % of control

COc1ccc(OC)c(Cc2cnc3nc(N)nc(N)c3c2C)c1
T/C (endpoint: median tumor weight change, dose: 31.25 mg/kg/injection, schedule: Q01DX001 (ip), vehicle: other): 47 % of control
T/C (endpoint: median tumor weight change, dose: 62.5 mg/kg/injection, schedule: Q01DX001 (ip), vehicle: other): 64 % of control

CC[C@]1(O)C[C@H]2CN(CCc3c([nH]c4ccccc34)[C@@](C(=O)OC)(c3cc4c(cc3OC)N(C)[C@H]3[C@@](O)(C(=O)OC)[C@H](OC(C)=O)[C@]5(CC)C=CCN6CC[C@]43[C@@H]65)C2)C1
T/C (endpoint: median tumor weight (est.), dose: 0.25 mg/kg/injection, schedule: Q07DX005 (ip), vehicle: saline): 70 % of control and 71 % of control
T/C (endpoint: median tumor weight (est.), dose: 0.5 mg/kg/injection, schedule: Q07DX005 (ip), vehicle: saline): 63 % of control and 83 % of control and 84 % of control
T/C (endpoint: median tumor weight change, dose: 1.0 mg/kg/injection, schedule: Q01DX001 (ip), vehicle: saline): 81 % of control
T/C (endpoint: median tumor weight change, dose: 2.0 mg/kg/injection, schedule: Q01DX001 (ip), vehicle: saline): 56 % of control
T/C (endpoint: median tumor weight change, dose: 4.0 mg/kg/injection, schedule: Q01DX001 (ip), vehicle: saline): 28 % of control
